According to patent EP3299021A1 (priority 2016, dated 2018):
Like-named read-outs stand apart in the source and are kept apart here.

What was measured:
[1] = test system: mitochondrial respiration chain; type: biochemical, mouse
Procedure: The mitochondrial integrity and function was analysed by measuring the oxygen consumption of the different complexes in the mitochondrial respiration chain. Therefore, the isolation and oxygen consumption of the mitochondria were based on the protocol of Frezza et al. (Organelle isolation: functional mitochondria from mouse liver, muscle and cultured fibroblasts. Nat Protoc, 2 (2): 287-295, 2007.) with some modifications. All chemicals and kits were supplied by Sigma Aldrich, Germany.
The oxygen consumption was measured by a microcathode oxygen electrode (S1782, Strathkelvin Instruments, Great Britain). The electrodes were calibrated according to the manufacturer's protocol. Mitochondria (1 mg protein) were suspended in 1 ml experimental buffer ([…], 10 mM Tris/MOPS, 40 mM EGTA/Tris 4, […]). As a substrate of complexes II, III and IV, 5 mM succinate was added. The main read out is the "respiratory control ratio (RCR)" that can be calculated by the ratio of "state 3" and "state 4" respiration, which is equivalent to the ratio of ADP-dependent respiration and ADP-independent respiration. […] If the ADP was consumed completely, the slope of the oxygen consumption ("state 4" respiration) looked similar to the "state 2" slope.

[2] = test system: mitochondria; settings: low dose STS, 1 h after reperfusion (Fig. 5a)
Procedure: The analysis of the ultra-structure of the tissue was performed by TEM. Therefore, the liver had to be perfused with 4 ml/min for 2 min with warm, oxygenated KBH to wash out all blood as described in section 3.4. Afterward, the liver was perfused with fixation buffer pH 7.4 (4 % paraformaldehyde, 2.5 % glutaraldehyde, 0.1 M sodium cacodylate) for 4 min. After the fixation, the liver was removed and cut into 1-2 mm slices. These slides were incubated overnight in the fixation buffer at 4 °C. Subsequently, the slices were cut into cubes and stored in 0.1 M cacodylate buffer.
The samples were embedded in Araldite resin (Piano, Wetzlar, Germany) according to manufacturer's instruction. Semithin sections (1 µm) were stained with Richardson's methylene blue to get a general overview. The areas of the samples were then further trimmed down to 500 x 500 µm. Ultra-thin sections of 80 nm thickness were cut using the ultramicrotome Ultracut E (Reichert-Jung, Wien, Austria). Finally, sections were investigated using a transmission electron microscope EM900 (Zeiss).

[3] = test system: liver; settings: 1 h ischemia and 1 h reperfusion, all STS doses (Fig. 4b)
Procedure: To implement the ex vivo IRI model, the liver was perfused via the portal vein with oxygenated Krebs-Henseleit buffer for 5 min one-way and 5 min in reverse. Afterwards, the pump was stopped for 1 h followed by 1 h reperfusion. During reperfusion, tissue samples were collected every 10 min.
The method is based on the reaction of GSH with 5,5'-dithiobis(2-nitrobenzoic acid) (DTNB), whereby 2-nitro-5-mercaptobenzoic acid is cleaved, which then leads to a color change. The frozen liver samples were homogenised in a 0.2 M sodium phosphate buffer (pH 8), containing 0.005 M EDTA, and four volumes of 25 % metaphosphoric acid. Subsequently, the samples were centrifuged at 9000 x rcf for 30 min at 4 °C. The absorbance was read at 412 nm using a Spekol 1100 (Carl Zeiss GmbH, Jena, Germany). A standard curve was performed with GSH.
In addition, the GSSG concentration was assessed fluorometrically (fluorescencespectrophotometer F-2000, Hitachi, Tokio, Japan). […] The fluorescence intensity is proportional to the GSSG concentration. […]
Therefore, a monovascular perfusion of the liver through the portal vein (anterograde perfusion) was carried out. […] During the whole experiment, the pressure within the liver was monitored via a pressure transducer (Biopac®Systems Inc, MP150, CA, USA) to control the physiological pressure of the liver. […]

[4] = test system: hepatic IRI; settings: medium dose 0.045 g STS/kg BW into tail vein
Procedure: Intravital microscopy has been used to analyse the early reperfusion injury in WT and Cse^-/- mice. Assay of plasma parameters and histological staining was applied to analyse later IRI. Rhodamine 123 was injected into the tail vein 5 min before the onset of the experiment. […] The mice were monitored for 2 h without IRI in the sham control group.
In all experiments male WT and Cse^-/- mice between 10 and 12 weeks were used for a standardised hepatic IRI model. One week before the experiments started, 100 µl blood was taken from the orbital sinus. Body temperature was maintained with a heating plate. During the actual experiment, ischemia was induced in the left lateral lobe of the liver by clamping the hepatic artery and the portal vein using a microaneurysm clamp (FST, Heidelberg, Germany). This procedure results in a segmental (30 %) ischemia. […]
IVM was conducted to monitor the mitochondrial membrane potential in vivo with confocal laser scanning microscopy. Therefore, the animals remained under deep general anesthesia using isoflurane and pain reflexes were assessed to gauge the depth of anesthesia. […] Rhodamine 123 was excited at 488 nm (Argon/2 laser) and the emitted light was detected by a monochromatic filter at 530 ± 30 nm (GaAsP detector). […] The standard deviation of the Rhodamine 123 fluorescence signal was calculated to quantify the changes of the mitochondrial granularity over time. […]

[5] = test system: TOM20; settings: for TOM20 signal: immunofluorescence, without STS 258, healthy control 672
Procedure: In addition to autophagy marker proteins, the translocase of the mitochondrial outer membrane 20 (TOM20) was analysed. […] To detect a possible specific loss of TOM20 in liver cells, immunofluorescence staining was carried out.
Finally, the liver tissue samples were stored for histological and molecular biological analysis.
The total protein content was isolated from the frozen tissue samples by an protein isolation buffer pH 7.5 (10 mM Tris, 250 mM saccharose, 1 mM EDTA, 1 % phosphatase-inhibitor, 1 % protease-inhibitor). To keep organelles and membranes as intact as possible, a tightly fitting Dounce homogenizer (Kimble Chase, Mexico) was used resulting in a mild and mechanical homogenisation. Afterward, the homogenate was centrifuged at 900 x rcf for 10 min at 4 °C. The protein content in the post nucleus supernatant was determined using the BCA assay (Sigma Aldrich, Hamburg, Germany). In addition, the samples were incubated for 15 min at room temperature with Laemmli sample buffer to denature the protein structure.
Afterward, the proteins were separated by size using 4-12 % SDS-gels (NuPAGE® Bis-Tris Gel, Invitrogen, Germany) in a SDS-Gel electrophoresis (XCellSureLock® Mini Gel chamber and NuPAGE®MOPS SDS Running Buffer, Invitrogen, Germany). Subsequently, the proteins were transferred to a PVDF-membrane (Roth, Germany). A blocking solution containing tris-buffered saline and tween 20 (TBST) pH 7.5 (10 mM Tris, 100 mM NaCl, 0.1 % Tween 20) 5 % BSA or skim milk (Sigma-Aldrich, Germany) was used to block unspecific bindings. The membrane was incubated with this solution for 1 h at room temperature. Next, the membrane was incubated with a rabbit polyclonal LC3B antibody (Cell Signaling Technology®, Danvers, USA 1:500 dilution), a rabbit polyclonal TOM20 antibody (Abcam®, Cambridge, UK 1:500 dilution) or a rabbit polyclonal β-actin antibody (Abcam®, Cambridge, UK 1:2,000 dilution) overnight at 4 °C. All primary antibodies were diluted in the blocking solution depending on the manufacture's protocol. After washing the membrane with TBST buffer 3 times, a horseradish peroxidase (HRP)-conjugated secondary antibody (1:5,000) was added for 1 h at room temperature. In the last step, the membrane was washed again with TBST buffer 3 times.
Detection of the secondary antibody by chemiluminescence was performed using HRP substrate (Immobilon Western HRP Substrat, Merck Millipore, USA) by the LAS3000 (GE Healthcare, Frankfurt, Germany). Finally, the target proteins were quantified by densitometric analysis in the software ImageJ (National Institutes of Health, USA). B-actin served as loading control to calculate the differences in the protein expression between the groups.
Immunofluorescence staining was used to investigate the TOM20 localisation. […]

[6] = test system: hepatic IRI
Description: The mice were imported by embryonic transfer into the animal facility of the Jena University Hospital and conducted under pathogen free conditions. The original mixed Sv129/C57 background was backcrossed to a 99 % C57BL/6 background. In all experiments male WT and Cse^-/- mice between 10 and 12 weeks were used for a standardised hepatic IRI model. […] Body temperature was maintained with a heating plate. During the actual experiment, ischemia was induced in the left lateral lobe of the liver by clamping the hepatic artery and the portal vein using a microaneurysm clamp (FST, Heidelberg, Germany). This procedure results in a segmental (30 %) ischemia. After 1 h, the clamp was removed to initiate the reperfusion. The reperfusion time points were set to 1 h or 24 h. Subsequently, the mice were sacrificed and both, plasma and organs, were harvested. During deep isoflurane (Forene®, Abb-Vie Deutschland GmbH & Co. KG, Ludwigshafen, Germany) anaesthesia, the blood was collected and plasma was generated. Next, the liver, the kidney and the spleen were removed and washed with saline.
The analysis of the ultra-structure of the tissue was performed by TEM. Therefore, the liver had to be perfused with 4 ml/min for 2 min with warm, oxygenated KBH to wash out all blood as described in section 3.4. […]

Substance	decline of RCR induced by tert-BOOH oxidative stress ([1]; 200 µM tert-BOOH + 1 µM NaHS (Fig. 3b))	mitochondrial respiratory activity ([1]; at low doses (Fig. 3a))	concentration that induced inhibitory effects on respiratory control ratio (RCR) ([1]; isolated mitochondria, 0-100 µM NaHS, no oxidative stress (Fig. 3a)) [µM]	mitochondrial structure by transmission electron microscopy [2]	amount of total glutathione [3]	RCR at higher concentrations [1]	mitochondrial respiratory activity [1]	mitochondrial granularity ([4]; WT and Cse-/- mice, end of reperfusion (120 min))	mitochondrial granularity ([4]; WT mice, beginning of reperfusion (60 min))	TOM20 levels by Western blot ([5]; healthy controls vs IRI treated livers vs STS treated groups (Fig. 6a))	TOM20 signal ([5]; high dose 0.45 g STS/kg BW) [positive cells per mm^2]	TOM20 signal ([5]; low dose 0.0045 g STS/kg BW) [positive cells per mm^2]	TOM20 signal ([5]; medium dose 0.045 g STS/kg BW) [positive cells per mm^2]	mitochondrial ultrastructure by transmission electron microscopy ([6]; Cse-/- mice after IRI with STS treatment (Fig. 8b))	mitochondrial ultrastructure by transmission electron microscopy ([6]; WT mice after IRI with STS treatment (Fig. 8b))
sodium hydrogen sulphide [NaHS]	compensated the decline of RCR	stimulated mitochondrial respiratory activity	100	–	–	–	–	–	–	–	–	–	–	–	–
sodium thiosulfate [STS]	–	–	–	retained their normal structure	significantly decreased by IRI independently on STS treatment	decreased RCR	stimulated mitochondrial respiratory activity	This effect was also detected	pronounced recovery of the mitochondrial granularity	no significant differences	194	305	422	electron-dense accumulation	normal mitochondrial architecture
